Tests used:
recombinant human LDHA = recombinant human LDHA (Homo sapiens, UniProt P00338); test: recombinant human LDHA enzyme assay (lactate to pyruvate, NADH via diaphorase/resazurin)
Snu398 cells [1] = test: Compound cellular permeability assay, whole-cell extract; assay type: in vitro ADME, human; conditions: Snu398 treated with 1 μM for 1.5 h
Method: Compound cellular permeability assays For cytosolic permeability assay, twelve million Snu398 cells were allowed to attach overnight and treated with DMSO control or 1 µM Compound 2 for 1.5 h in 1.7 mM glucose medium. The medium was removed, cells were washed in phosphate-buffered saline (PBS), and cytosolic extracts were prepared by solubilization in Qproteome lysis buffer (Qiagen, Valencia, CA). For whole-cell permeability assay, 75,000 Snu398 cells/well were plated in 96-well plates and treated with DMSO control or 1 µM compounds for 1.5h in low glucose medium. The medium was removed, cells were washed in PBS and solubilized in 50:50 mixture of methanol and acetonitrile. Compound concentration in the cytosolic or whole-cell extract was determined by LC/MS/MS analysis. An Acquity UPLC system (Waters Inc., Milford, MA) was coupled to an API 4000 or API 5000 triple-quad mass spectrometer (Applied Biosystems). […] Compound concentration in cells was determined by counting the number of cells in sample wells and assuming 3 pL/cell volume.

Snu398 cells [2] = test: Lactate production assay, Snu398 (RapidFire-MS)
recombinant human LDHB = recombinant human LDHB (Homo sapiens, UniProt P07195); test: recombinant human LDHB enzyme assay (lactate to pyruvate, NADH via diaphorase/resazurin)
recombinant human LDHB, sequence (P07195 whole entry): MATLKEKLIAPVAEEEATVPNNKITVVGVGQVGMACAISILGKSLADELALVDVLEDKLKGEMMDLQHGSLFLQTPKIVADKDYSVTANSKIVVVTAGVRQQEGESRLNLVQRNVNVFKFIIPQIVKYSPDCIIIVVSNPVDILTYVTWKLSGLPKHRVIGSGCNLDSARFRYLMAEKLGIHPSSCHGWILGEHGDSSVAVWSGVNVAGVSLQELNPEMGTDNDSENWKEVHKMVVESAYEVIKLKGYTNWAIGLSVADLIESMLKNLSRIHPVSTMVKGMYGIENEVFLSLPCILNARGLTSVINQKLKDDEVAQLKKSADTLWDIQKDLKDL

Row | mode of LDHA inhibition (recombinant human LDHA) | EC50 (Snu398 cells [2]; Homo sapiens, SNU-398, read-out: lactate production EC50) [µM] | IC50 (recombinant human LDHB) [µM] | IC50 (recombinant human LDHA) [µM] | Compound | apparent intracellular concentration versus medium (Snu398 cells [1]) | effect on cellular lactate production (Snu398 cells [2]; Snu398)
1 | NADH-competitive LDHA inhibitor | – | – | – | COc1cc2c(Nc3cccc(C(=O)O)c3)c(C(N)=O)cnc2cc1-c1c(C)noc1C | – | –
2 | – | 3.3 ± 1.3 | 0.055 ± 0.009 | – | COc1ncc(-c2ccc3c(Nc4cc(Oc5ccc(F)cc5)cc(S(N)(=O)=O)c4)c(S(=O)(=O)NC4CC4)cnc3c2)c(OC)n1 [Compound 3] | higher apparent intracellular concentrations than that of the medium | –
3 | – | – | > 50 | > 50 | COc1ncc(-c2ccc3c(Nc4cc(Oc5ccc(F)cc5)cc(C(F)(F)F)c4)c(S(=O)(=O)NC4CC4)cnc3c2)c(OC)n1 [Compound 4] | – | does not affect cellular lactate
